Measurements reported in patent US20170190671A1, “BIS(ARYL)CATECHOL DERIVATIVES AS HERBICIDES” (E I DU PONT DE NEMOURS AND COMPANY, priority 2014, published 2017).

What was measured:
Assay in all cases: Test C postemergence
Type in all cases: in vivo
[1] = tested on: velvetleaf (Abutilon theophrasti); settings: Abutilon theophrasti, post-emergence, Postemergence, scale 0 to 100, read-out: Plant response rating, Velvetleaf
Procedure, shortened: (§1)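 After preemergence treatment of seeds in loam-sand soil or foliar treatment at the 1- to 4-leaf stage of plants in peat/vermiculite medium, pots were kept 13-15 days in the greenhouse. Each was then scored visually, 0 meaning no effect and 100 complete control.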

[2] = tested on: winter wheat (Triticum aestivum); settings: Triticum aestivum, post-emergence, 336 h, Postemergence, scale 0 to 100, read-out: Plant response rating, Wheat
Procedure, shortened: as §1

[3] = tested on: barnyardgrass (Echinochloa crus-galli); settings: Echinochloa crus-galli, post-emergence, Postemergence, scale 0 to 100, read-out: Plant response rating, Barnyardgrass
Procedure, shortened: as §1

soybean (Glycine max) = settings: Glycine max, post-emergence, Postemergence, scale 0 to 100, read-out: Plant response rating, Soybean
Procedure, shortened: as §1

[4] = tested on: ragweed (common ragweed, Ambrosia elatior); settings: Ambrosia artemisiifolia, post-emergence, 336 h, Postemergence, scale 0 to 100, read-out: Plant response rating, Ragweed
Procedure, shortened: as §1

[5] = tested on: large (Lg) crabgrass (Digitaria sanguinalis); settings: Digitaria sanguinalis, post-emergence, 336 h, Postemergence, scale 0 to 100, read-out: Plant response rating, Crabgrass, Large
Procedure, shortened: as §1

[6] = tested on: Italian ryegrass (Lolium multiflorum); settings: Lolium multiflorum, post-emergence, 336 h, Postemergence, scale 0 to 100, read-out: Plant response rating, Ryegrass, Italian
Procedure, shortened: as §1

[7] = tested on: oilseed rape (Brassica napus); settings: Brassica napus, post-emergence, Postemergence, scale 0 to 100, read-out: Plant response rating, Oilseed Rape
Procedure, shortened: as §1

[8] = tested on: morningglory (Ipomoea coccinea); settings: Ipomoea, post-emergence, 336 h, Postemergence, scale 0 to 100, read-out: Plant response rating, Morningglory
Procedure, shortened: as §1

[9] = tested on: blackgrass (Alopecurus myosuroides); settings: Alopecurus myosuroides, post-emergence, 336 h, Postemergence, scale 0 to 100, read-out: Plant response rating, Blackgrass
Procedure, shortened: as §1

[10] = tested on: giant foxtail (Setaria faberii); settings: Setaria faberi, post-emergence, 336 h, Postemergence, scale 0 to 100, read-out: Plant response rating, Foxtail, Giant
Procedure, shortened: as §1

[11] = tested on: lambsquarters (Chenopodium album); settings: Chenopodium album, post-emergence, 336 h, Postemergence, scale 0 to 100, read-out: Plant response rating, Lambsquarters
Procedure, shortened: as §1

[12] = tested on: johnsongrass (Sorghum halepense); settings: Sorghum halepense, post-emergence, 336 h, Postemergence, scale 0 to 100, read-out: Plant response rating, Johnsongrass
Procedure, shortened: as §1

corn (Zea mays) = settings: Zea mays, post-emergence, 336 h, Postemergence, scale 0 to 100
Procedure, shortened: as §1

In the case of Fc1cnc(Oc2c(Br)cccc2Oc2ncc(Cl)cn2)nc1 [Compound 22], the pest or weed control at 31 g/ha ([1]; 31 g ai/ha) is reported as 30%, the pest or weed control at 62 g/ha ([1]; 62 g ai/ha) is reported as 65% and the pest or weed control at 125 g/ha ([1]; 125 g ai/ha) is reported as 70%. It also gave a pest or weed control at 250 g/ha ([1]; 250 g ai/ha) of 70%, a plant injury at 31 g/ha ([2]; 31 g ai/ha) of 0% and a plant injury at 62 g/ha ([2]; 62 g ai/ha) of 0%. For the same compound, the plant injury at 125 g/ha ([2]; 125 g ai/ha) was 0%, the plant injury at 250 g/ha ([2]; 250 g ai/ha) was 0% and the pest or weed control at 31 g/ha ([3]; 31 g ai/ha) was 5%. For the same compound, the pest or weed control at 62 g/ha ([3]; 62 g ai/ha) was 5%, the pest or weed control at 125 g/ha ([3]; 125 g ai/ha) was 15% and the pest or weed control at 250 g/ha ([3]; 250 g ai/ha) was 10%. The plant injury at 31 g/ha (soybean (Glycine max); 31 g ai/ha) was 40%, the plant injury at 62 g/ha (soybean (Glycine max); 62 g ai/ha) was 75% and the plant injury at 125 g/ha (soybean (Glycine max); 125 g ai/ha) was 90%. It also gave a plant injury at 250 g/ha (soybean (Glycine max); 250 g ai/ha) of 0%, a pest or weed control at 31 g/ha ([4]; 31 g ai/ha) of 30% and a pest or weed control at 62 g/ha ([4]; 62 g ai/ha) of 35%. The pest or weed control at 125 g/ha ([4]; 125 g ai/ha) was 90%, the pest or weed control at 250 g/ha ([4]; 250 g ai/ha) was 90% and the pest or weed control at 31 g/ha ([5]; 31 g ai/ha) was 5%. For the same compound, the pest or weed control at 62 g/ha ([5]; 62 g ai/ha) was 15%, the pest or weed control at 125 g/ha ([5]; 125 g ai/ha) was 25% and the pest or weed control at 250 g/ha ([5]; 250 g ai/ha) was 20%. It also gave a pest or weed control at 31 g/ha ([6]; 31 g ai/ha) of 0%, a pest or weed control at 62 g/ha ([6]; 62 g ai/ha) of 0% and a pest or weed control at 125 g/ha ([6]; 125 g ai/ha) of 5%. It also gave a pest or weed control at 250 g/ha ([6]; 250 g ai/ha) of 5%, a plant injury at 31 g/ha ([7]; 31 g ai/ha) of 40% and a plant injury at 62 g/ha ([7]; 62 g ai/ha) of 40%. For the same compound, the plant injury at 125 g/ha ([7]; 125 g ai/ha) was 60%, the plant injury at 250 g/ha ([7]; 250 g ai/ha) was 35% and the pest or weed control at 31 g/ha ([8]; 31 g ai/ha) was 80%. The pest or weed control at 62 g/ha ([8]; 62 g ai/ha) was 70%, the pest or weed control at 125 g/ha ([8]; 125 g ai/ha) was 85% and the pest or weed control at 250 g/ha ([8]; 250 g ai/ha) was 80%. The pest or weed control at 31 g/ha ([9]; 31 g ai/ha) was 5%, the pest or weed control at 62 g/ha ([9]; 62 g ai/ha) was 5% and the pest or weed control at 125 g/ha ([9]; 125 g ai/ha) was 5%. The pest or weed control at 250 g/ha ([9]; 250 g ai/ha) was 10%, the pest or weed control at 31 g/ha ([10]; 31 g ai/ha) was 5% and the pest or weed control at 62 g/ha ([10]; 62 g ai/ha) was 5%. The pest or weed control at 125 g/ha ([10]; 125 g ai/ha) was 10%, the pest or weed control at 250 g/ha ([10]; 250 g ai/ha) was 20% and the pest or weed control at 31 g/ha ([11]; 31 g ai/ha) was 70%. For the same compound, the pest or weed control at 62 g/ha ([11]; 62 g ai/ha) was 75%, the pest or weed control at 125 g/ha ([11]; 125 g ai/ha) was 95% and the pest or weed control at 250 g/ha ([11]; 250 g ai/ha) was 98%. The pest or weed control at 31 g/ha ([12]; 31 g ai/ha) was 0%, the pest or weed control at 62 g/ha ([12]; 62 g ai/ha) was 0% and the pest or weed control at 125 g/ha ([12]; 125 g ai/ha) was 5%. The pest or weed control at 250 g/ha ([12]; 250 g ai/ha) was 5%, the Corn plant response rating (crop injury, 0 = no effect, 100 = complete kill) at 31 g/ha (corn (Zea mays); 31 g ai/ha) was 5% and the Corn plant response rating (crop injury, 0 = no effect, 100 = complete kill) at 62 g/ha (corn (Zea mays); 62 g ai/ha) was 10%. For the same compound, the Corn plant response rating (crop injury, 0 = no effect, 100 = complete kill) at 125 g/ha (corn (Zea mays); 125 g ai/ha) was 10% and the Corn plant response rating (crop injury, 0 = no effect, 100 = complete kill) at 250 g/ha (corn (Zea mays); 250 g ai/ha) was 10%.
